The test system of one assay is Sitophilus. Briefly: Insecticidal activity against Sitophilus spp. assessed as mortality after 5 days. To be noted: 120 h, read-out: LD50 (the source's name). Type of assay: functional.
In the next assay the test system is Callosobruchus maculatus. Briefly: Insecticidal activity against Callosobruchus maculatus assessed as mortality after 5 days. The assay is classed as functional. To be noted: 120 h, read-out: LD50 (the source's name).

Values after ≈ are worked out from the molar mass of the structure shown. Where a SMILES comes first, the peptide text is derived from it. [ ]: non-standard residue; d: D form. ξ: configuration not given here. ξLac(3-iPr) = CC(C)CC(O)C(=O)O; NMeV = CN[C@H](C(=O)O)C(C)C; βAla = NCCC(=O)O

On to `CC(C)CC1OC(=O)CCNC(=O)[C@H](C(C)C)N(C)C(=O)[C@H](C(C)C)N(C)C(=O)[C@H](Cc2ccccc2)NC(=O)[C@@H]2CCCN2C1=O` (stereo partly drawn) [ISARIDIN E] (cyclo(F[NMeV][NMeV][βAla][ξLac(3-iPr)]P)), for which the LC50 in the assay with Sitophilus worked out at 300 µg/mL (≈ 457 µM); in the assay on Callosobruchus maculatus it was 220 µg/mL (≈ 335 µM).
On to `CCCCC(C)C1CC(=O)NCC(=O)N[C@@H](C(C)C)C(=O)N[C@H](CC(C)C)C(=O)N[C@@H](C)C(=O)N[C@H](C(C)C)C(=O)O1` (stereo partly drawn) [ISO-ISARIIN B], for which the LC50 in the assay on Sitophilus was 10 µg/mL (≈ 16.8 µM).

(Values after ChEMBL document CHEMBL3045917, “Insecticidal cyclodepsipeptides from Beauveria felina” (2011).)
